Results: US20110269758A1, “NAPHTHYRIDINONES AS PROTEIN KINASE INHIBITORS” (MERCK PATENT GMBH, priority 2008, published 2011)

Assays:
Aurora Kinase B = Aurora Kinase B (Homo sapiens, UniProt Q96GD4); assay: Biochemical enzyme assay for Aurora B activity (Caliper mobility shift); conditions: LC3000 or Desktop Profiler
Experimental: (§1) The Aurora assays described here were performed on two Caliper Life Sciences systems, the LC3000 and the Desktop Profiler. These provide data on enzyme activity via measurement of the relative amounts of phosphorylated or unphosphorylated fluorescently labelled substrate peptide at the end of an enzymatic reaction. These different states of peptide are resolved by applying a potential difference across the sample. The presence of a charged phosphate group on the product (as opposed to the substrate) causes a different peptide mobility between the two peptides. This is visualized by excitation of a fluorescent label on the substrate and product peptides and represented as peaks within the analysis software.
(§2) The Desktop Profiler utilizes the same prinicipal as the LC 3000 for calculating percentage conversion of a substrate to product. Caliper Life Sciences provided proprietary flash frozen pre-made 384 well plates containing selected kinases. Each column in the 384 well plate contained a particular selected kinase. A second plate, the ‘substrate plate’ contained a mix of fluorescently labeled peptide substrate and ATP. These were arranged in columns so that transfer for substrate plate to enzyme plate provided the correct enzyme with the correct substrate/ATP concentration.
(§3) Compounds were added to a thawed enzyme plate in the desired format, in single concentrations. Reactions were initiated by transfer of the substrate/ATP mix from the substrate plate. The enzyme plate was incubated for 90 mins at 25° C. The reaction was stopped by addition of 70 μl of Stop Buffer (100 mM HEPES pH 7.5, 0.015% Brij-35, 10 mM EDTA (Sigma, E7889)).
Plates were read in a manner identical to that of the LC3000, and the ratio between substrate and product peaks provided the activity of the enzyme in that well. This was best represented by a plate heat map which colors each well by percent inhibition as compared to positive and negative controls (no inhibitors and no ATP respectively).

Aurora Kinase A = target: T1, Aurora Kinase A (Homo sapiens, UniProt O14965); assay: Biochemical enzyme assay for Aurora A activity (Caliper LC3000 / Desktop Profiler mobility shift); conditions: GST-Aurora A, 15 μM ATP, 90 min at 25° C.; LC3000 or Desktop Profiler; read-out: Aurora Kinase A IC50
T1 construct: full length Aurora A (1-403 amino acids); purchased Carna Biosciences 05-101
T1 sequence (O14965 1-403): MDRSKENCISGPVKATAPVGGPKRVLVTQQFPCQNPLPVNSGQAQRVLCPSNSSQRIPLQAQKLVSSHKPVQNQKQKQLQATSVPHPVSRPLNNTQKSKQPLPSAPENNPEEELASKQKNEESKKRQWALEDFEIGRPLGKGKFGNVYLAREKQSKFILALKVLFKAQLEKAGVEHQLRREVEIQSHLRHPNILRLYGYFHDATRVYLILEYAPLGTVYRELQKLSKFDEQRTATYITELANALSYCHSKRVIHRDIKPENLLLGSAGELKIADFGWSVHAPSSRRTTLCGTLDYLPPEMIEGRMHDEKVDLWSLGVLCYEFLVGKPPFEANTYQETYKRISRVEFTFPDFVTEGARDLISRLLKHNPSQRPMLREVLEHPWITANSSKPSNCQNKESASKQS
Experimental: as §1
In order to measure inhibitor activity of Aurora A inhibitors in the Caliper Life Sciences LC3000, a TTP Mosquito liquid handling instrument was used to place 0.25 μl of an appropriate concentration of inhibitor in 100% DMSO (for a dose response curve calculation) into each well of a 384-well plate.
The reaction was incubated for 90 min at 25° C., and then stopped by the addition of 70 μl of Stop buffer (100 mM HEPES pH 7.5, 0.015% Brij-35, 10 mM EDTA (Sigma, E7889)).
The plate was read on a Caliper LC 3000 in an Off-Chip mobility shift assay format, using the following parameters for a 12-sipper chip: screening pressure −1.8 psi, upstream voltage −2700, downstream voltage −1000. These conditions cause unphosphorylated substrate and phosphorylated product peptide to resolve as separate peaks allowing direct measurement of percentage of conversion of substrate to product.
as §2, §3
Plates were read in a manner identical to that of the LC3000, and the ratio between substrate and product peaks provided the activity of the enzyme in that well.

[1] = tested on: cyclin-dependent kinases (CDKs) and Aurora kinases; conditions: cited from earlier work
[2] = tested on: tumor cells of various origins; conditions: cited from earlier work
[3] = tested on: leukemia, colon and pancreatic tumors; conditions: variety of in vivo xenograft models, well-tolerated doses; cited from earlier work
human tumor types = conditions: diverse range of human tumor types; cited from earlier work

Aurora Kinase B, sequence (Q96GD4 whole entry): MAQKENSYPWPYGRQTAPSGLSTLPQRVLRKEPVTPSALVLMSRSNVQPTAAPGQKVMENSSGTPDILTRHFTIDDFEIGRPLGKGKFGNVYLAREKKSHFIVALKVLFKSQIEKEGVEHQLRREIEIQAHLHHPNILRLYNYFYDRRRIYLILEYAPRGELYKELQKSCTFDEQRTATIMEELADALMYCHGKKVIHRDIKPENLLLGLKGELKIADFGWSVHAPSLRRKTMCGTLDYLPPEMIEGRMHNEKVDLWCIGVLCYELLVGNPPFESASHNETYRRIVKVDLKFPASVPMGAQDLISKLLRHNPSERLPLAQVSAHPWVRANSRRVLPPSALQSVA

Compound | IC50 (Aurora Kinase B) [nM] | IC50 (Aurora Kinase A) [nM] | also measured
O=C(Nc1ccc(Nc2ccnc3[nH]c(=O)ccc23)cc1)c1ccccc1C(F)(F)F [Compound 37, 2-Trifluoromethyl-N-(4-(7-oxo-7,8-dihydro-1,8-naphthyridin-4-yl-amino)phenyl)benzamide] | 601 to 1000 | 601 to 1000 | –
O=C(Nc1ccc(Nc2ccnc3[nH]c(=O)ccc23)cc1)c1ccc(C(F)(F)F)cc1 [Compound 38, 4-Trifluoromethyl-N-(4-(7-oxo-7,8-dihydro-1,8-naphthyridin-4-yl-amino)phenyl)benzamide] | > 1000 | > 1000 | –
O=C(Nc1ccc(Nc2ccnc3[nH]c(=O)ccc23)cc1)c1cccc(C(F)(F)F)c1F [Compound 39, 2-Fluoro-3-Trifluoromethyl-N-(4-(7-oxo-7,8-dihydro-1,8-naphthyridin-4-yl-amino)phenyl)benzamide] | > 1000 | > 1000 | –
CN(C)CCNC(=O)c1cc2c(Nc3ccc(NC(=O)c4ccccc4)cc3)ncnc2[nH]c1=O [Compound 86, 4-(4-Benzoylamino-phenylamino)-7-oxo-7,8-dihydro-pyrido[2,3-d]pyrimidine-6-carboxylic acid 2-(dimethylamino-ethyl)-amide] | 601 to 1000 | > 1000 | –
O=C(Nc1ccc(Nc2ccnc3[nH]c(=O)c(F)cc23)cc1)c1ccc(F)cc1C(F)(F)F [Compound 96, 4-Fluoro-N-[4-(6-fluoro-7-oxo-7,8-dihydro-[1,8]naphthyridin-4-ylamino)-phenyl]-2 trifluoromethyl-benzamide] | 1 to 300 | 1 to 300 | –
Nc1nc(Nc2ccc(S(N)(=O)=O)cc2)nn1C(=O)c1c(F)cccc1F [JNJ-7706621] | – | – | inhibition of CDKs and Aurora kinases [1]: potent inhibition; proliferation of tumor cells [2]: selectively blocked proliferation
Cc1cc(Nc2cc(N3CCN(C)CC3)nc(Sc3ccc(NC(=O)C4CC4)cc3)n2)n[nH]1 [VX-680] | – | – | inhibition of tumor growth [3]: profound inhibition of tumor growth; effect on cell-cycle progression and apoptosis (human tumor types): blocks cell-cycle progression and induces apoptosis

The next lines start with results.

IC50 (Aurora Kinase B) [nM] | IC50 (Aurora Kinase A) [nM] | Compound | also measured
1 to 300 | 1 to 300 | Nc1ccc(NC(=O)c2ccccc2C(F)(F)F)cc1 [Compound 5, N-(4-Aminophenyl)-2-trifluoromethyl-benzamide] | –
1 to 300 | 1 to 300 | Nc1ccc(NC(=O)c2ccc(C(F)(F)F)cc2)cc1 [Compound 6, N-(4-Aminophenyl)-4-trifluoromethyl-benzamide] | –
1 to 300 | 1 to 300 | Nc1ccc(NC(=O)c2c(F)cccc2F)cc1 [Compound 9, N-(4-Aminophenyl)-2,6-difluoro-benzamide] | –
– | 1 to 300 | O=C(Nc1ccc(Nc2ccnc3[nH]c(=O)c([N+](=O)[O-])cc23)cc1)c1ccc(F)cc1C(F)(F)F [Compound 88, 4-Fluoro-2-trifluoromethyl-N-(4-(6-nitro-7-oxo-7,8-dihydro-1,8-naphthyridin-4-yl-amino)phenyl)benzamide] | –
1 to 300 | 1 to 300 | Nc1cc2c(Nc3ccc(NC(=O)c4ccc(F)c(F)c4)cc3)ccnc2[nH]c1=O [Compound 89, 3,4-Difluoro-N-(4-(6-amino-7-oxo-7,8-dihydro-1,8-naphthyridin-4-yl-amino)phenyl)benzamide] | –
1 to 300 | 1 to 300 | Nc1cc2c(Nc3ccc(NC(=O)c4ccc(F)cc4C(F)(F)F)cc3)ccnc2[nH]c1=O [Compound 90, 4-Fluoro-2-trifluoromethyl-N-(4-(6-amino-7-oxo-7,8-dihydro-1,8-naphthyridin-4-yl-amino)phenyl)benzamide] | –
1 to 300 | 1 to 300 | O=C(Nc1ccc(Nc2ccnc3[nH]c(=O)cc(O)c23)cc1)c1ccc(F)cc1C(F)(F)F [Compound 91, 4-Fluoro-N-[4-(5-hydroxy-7-oxo-7,8-dihydro-[1,8]naphthyridin-4-ylamino)-phenyl]-2 trifluoromethyl-benzamide] | –
1 to 300 | 1 to 300 | O=C(Nc1ccc(Nc2ccnc3[nH]c(=O)cc(O)c23)cc1)c1ccccc1 [Compound 92, N-[4-(5-Hydroxy-7-oxo-7,8-dihydro-[1,8]naphthyridin-4-ylamino)-phenyl]-benzamide] | –
1 to 300 | 1 to 300 | O=C(Nc1ccc(Nc2ccnc3[nH]c(=O)cc(OCC4CC4)c23)cc1)c1ccccc1 [Compound 93, N-[4-(5-Cyclopropylmethoxy-7-oxo-7,8-dihydro-[1,8]naphthyridin-4-ylamino)-phenyl]benzamide] | –
1 to 300 | 1 to 300 | Cc1cc(=O)[nH]c2nccc(Nc3ccc(NC(=O)c4ccccc4)cc3)c12 [Compound 94, N-[4-(5-Methyl-7-oxo-7,8-dihydro-[1,8]naphthyridin-4-ylamino)-phenyl]-benzamide] | –
1 to 300 | 1 to 300 | Cc1cc(=O)[nH]c2nccc(Nc3ccc(NC(=O)c4ccc(F)cc4C(F)(F)F)cc3)c12 [Compound 95, 4-Fluoro-N-[4-(5-methyl-7-oxo-7,8-dihydro-[1,8]naphthyridin-4-ylamino)-phenyl]-2 trifluoromethyl-benzamide] | –
